According to patent US6693100B1, “Pharmaceutical compositions for treating psoriasis” (priority 1999, dated 2004):

Legend:
psoriasis [1] = details: cited from earlier work
[2] = pH of reconstituted and diluted Cardioxane solution for infusion; format: physicochemical
Method: Cardioxane® is available in 36 ml brown glass vials. Each vial contains 500 mg lyophilised active substance, the hydrochloric acid salt of dexrazoxane. For reconstitution the contents of each vial is dissolved in 25 ml sterile water for injection. The contents will dissolve within a few minutes under gentle agitation. The pH of the resulting solution is approx. pH 1.6.
For infusion the solution needs to be further diluted. Preferred are sodium lactate UP (0.16M) or Ringer-Lactate BP for infusion. Both solutions give an infusion fluid with an acceptable pH.

refractory psoriasis [3] = assay: Clinical study of efficacy of dexrazoxane in patients with refractory psoriasis, Psoriasis Area and Severity Index (Example 4); format: in vivo, human
Method: (§1) The efficacy and tolerability of dexrazoxane in patients with refractory psoriasis was assessed in a clinical study.
(§2) After screening, eligible patients received 500 mg of Cardioxane® by intravenous infusion on each of two consecutive days. They were reviewed 7 and 14 days after the first day of treatment. The patients received the second cycle of treatment, which consisted of either 500 mg Cardioxane® by intravenous infusion, on each of two consecutive days (days 15 and 16, in this case), if a complete response had occurred, or 1000 mg Cardioxane® by intravenous infusion, on each of two consecutive days (days 15 and 16, in this case), if an incomplete response had occurred.
(§3) A third cycle of treatment was given after the same interval (days 29 and 30, in this case).
The primary efficacy parameter was the percentage reduction in skin area and severity affected by psoriasis, as determined by the standardised assessment of the Psoriasis Area and Severity Index (PASI).
Seven patients have been enrolled in the study and all patients have completed a follow-up period of two weeks. At the beginning of the treatment, the PASI-scores ranged between 23.1 and 44.1, with a mean score of 31.9. […] At the end of the third treatment cycle, the PASI-scores ranged between 3.4 and 29.7, with a mean score of 11.4.

[4] = human, in vivo
Method: as §1, §2, §3
This neutropenia disappeared after another week, and the counts were normal from then on. All other patients had normal white blood cell counts. The assessment of toxicity was according to the WHO criteria: grade 0 (non-toxic, a count of more than 4×10E9 leukocytes per liter), grade 1 (mild) to grade 4 (most severe).

psoriasis [5] = assay: Clinical trial case reports: Cardioxane intravenous drip infusion in individual psoriasis patients (Examples 1-3); format: in vivo, human
Excerpt: The disease started after mental stress (loss of near person) with a rash on the hairy part of the head. From the very onset of the disease the patient received intensive treatment with vitamins B12, B6, B2, and calcium. They had artificial hyperthermia with pyrogenal injections, methotrexate, various ointments (e.g. salicylic ointment) under a dermatologist's observation at a specialised clinic. In spite of the treatment the psoriatic rash was spreading over the trunk, upper and lower extremities and it was accompanied by a marked general itch. The patient had practically no remissions. Concurrent diseases were grade II hypertension and chronic cholecystopancreatitis.
At the first examination the patient complained about itching all over the body (resulting in insomnia) and pain in the large joints (mainly knees). The skin on the back, buttocks, chest and arms was covered with a erythematous papular and pustular rash with a white coating (desquamation). A similar though less intense rash was seen on the legs. The patient's general status, the haematological and biochemical profiles were within normal.
On the first and the second day of the treatment cycle the patient received the first doses of Cardioxane® (dexrazoxane.HCl) at 500 mg each day by intravenous drip infusion. […] The itch practically disappeared after the next dose of Cardioxane® therapy at 1000 mg on day 16. […] The patient slept well for the first time in a long disease period. The effect was still preserved at the examination on day 29 and day 30 when the patient was given the last two injections of Cardioxane® at 1500 mg each.
This patient had suffered from generalised psoriasis for 25 years. The rash first appeared on the head and the right upper limb to spread over the trunk and upper limbs later. The patient had received therapies similar to the patient described in Example 1. In addition they received UV therapy, peloids, sulfurated hydrogen baths, but without lasting effect. The patient had no concurrent illness except asthenia, sinus arrhythmia and left ventricular hypertrophy. The skin on the back, lumbar region and shoulders was covered with merged erythematous papular, bullar and desquamating lesions. The rash on the lateral chest walls and on the lower limbs was mainly erythematous and less marked. The skin lesions covered about 50% of the body surface.
The patient was given 6 intravenous drip injections with Cardioxane® according to the following schedule:
On day 1 and day 2 each 500 mg Cardioxane®,
on day 15 and day 16 each 1000 mg Cardioxane®,
and on day 29 and day 30 each 1500 mg Cardioxane®.
The psoriatic rash appeared on the hairy part of the head and neck to spread further over the body. The patient received insolation with but a temporary effect. The patient had had 4 hospitalisations to receive therapy with vitamins, calcium, and various ointments.
At the first examination on day 1 the patient presented with continuous erythematous papular psoriatic rash with desquamation on the front abdominal wall (below the submammal fold), the inguioileac, the lumbosacral, the gluteal regions and the lower limbs, severe itch, and scraping tubular breathing (asthmatic bronchitis). Of note was also a marked increase in the eosinophile count.
The patient received 6 intravenous drip injections of Cardioxane® according to the protocol given in Example 2. […] The lower half of the abdomen as well as the upper gluteal quadrants were practically free of rash.

refractory psoriasis [6] = assay: Separate longer study of three patients with refractory psoriasis; format: in vivo, human
Excerpt: This patient, who previously suffered distressing refractory psoriasis, can be treated with conventional emollients. Dexrazoxane therefore has the potential to provide remarkable long term relief from refractory psoriasis and a low level of side effects.

[7] = British Journal of Dermatology (1980) 102, 307
[8] = at 11 weeks after the start of the therapy
[9] = Example 3 patient, examination on day 30
[10] = patients of the clinical trial (general statement)

CC(CN1CC(=O)NC(=O)C1)N1CC(=O)NC(=O)C1 (racemic) [razoxane, 1,2-bis(3,5-dioxopiperazin-1-yl)-propane]
efficacy in psoriasis (psoriasis [1]; [7]): relatively good efficacy | tolerability in psoriasis patients (psoriasis [1]; [7]): good tolerability | most frequently seen side effect (psoriasis [1]; Horton and Wells, British Journal of Dermatology (1983) 109, 669-673): neutropenia

CC(CN1CC(=O)NC(=O)C1)N1CC(=O)NC(=O)C1 (stereo not drawn) [Cardioxane]
pH of the resulting solution ([2]; 500 mg vial dissolved in 25 ml sterile water for injection): ~1.6 | pH ([2]; 4 reconstituted vials diluted with 100 ml Ringer-Lactate BP, total 200 ml): 2.14 | pH ([2]; 4 reconstituted vials diluted with 100 ml Sodium lactate UP (0.16 M), total 200 ml): 3.80 | pH ([2]; 4 reconstituted vials diluted with 300 ml Ringer-Lactate BP, total 400 ml): 2.85 | pH ([2]; 4 reconstituted vials diluted with 300 ml Sodium lactate UP (0.16 M), total 400 ml): 4.47 | pH ([2]; 4 reconstituted vials diluted with 400 ml Ringer-Lactate BP, total 500 ml): 3.19 | pH ([2]; 4 reconstituted vials diluted with 500 ml Ringer-Lactate BP, total 600 ml): 3.45 | pH ([2]; 4 reconstituted vials diluted with 500 ml Sodium lactate UP (0.16 M), total 600 ml): 4.66 | maximum reduction in PASI (refractory psoriasis [3]; [8]): 88% | mean reduction in PASI (refractory psoriasis [3]; [8]): 65% | relief of symptoms associated with psoriatic arthritis (refractory psoriasis [3]; compared to treatment with cyclosporine A used previously in the clinic): better and faster relief | remission (refractory psoriasis [3]; one month after the last injection): most of the patients are still in remission | PASI score (refractory psoriasis [3]; patient 1/HH, visit v1 (start of treatment)): 23.1 | PASI score (refractory psoriasis [3]; patient 1/HH, visit v4): 11.3 | PASI score (refractory psoriasis [3]; patient 1/HH, visit v7): 7.7 | PASI score (refractory psoriasis [3]; patient 1/HH, visit v9): 6.5 | PASI score (refractory psoriasis [3]; patient 1/HH, visit v10): 6.5 | PASI score (refractory psoriasis [3]; patient 1/HH, visit v11): 5.6 | PASI score (refractory psoriasis [3]; patient 2/MR, visit v1 (start of treatment)): 43.6 | PASI score (refractory psoriasis [3]; patient 2/MR, visit v4): 36.3 | PASI score (refractory psoriasis [3]; patient 2/MR, visit v7): 23.1 | PASI score (refractory psoriasis [3]; patient 2/MR, visit v9): 15.6 | PASI score (refractory psoriasis [3]; patient 2/MR, visit v10): 12.3 | PASI score (refractory psoriasis [3]; patient 2/MR, visit v11): 14.0 | PASI score (refractory psoriasis [3]; patient 3/MZ, visit v1 (start of treatment)): 29.8 | PASI score (refractory psoriasis [3]; patient 3/MZ, visit v4): 18.4 | PASI score (refractory psoriasis [3]; patient 3/MZ, visit v7): 11.6 | PASI score (refractory psoriasis [3]; patient 3/MZ, visit v9): 9.7 | PASI score (refractory psoriasis [3]; patient 3/MZ, visit v10): 7.1 | PASI score (refractory psoriasis [3]; patient 3/MZ, visit v11): 6.5 | PASI score (refractory psoriasis [3]; patient 4/PH, visit v1 (start of treatment)): 27.0 | PASI score (refractory psoriasis [3]; patient 4/PH, visit v4): 18.6 | PASI score (refractory psoriasis [3]; patient 4/PH, visit v7): 13.5 | PASI score (refractory psoriasis [3]; patient 4/PH, visit v9): 10.8 | PASI score (refractory psoriasis [3]; patient 4/PH, visit v10): 12.0 | PASI score (refractory psoriasis [3]; patient 4/PH, visit v11): 5.2 | PASI score (refractory psoriasis [3]; patient 5/PZ, visit v1 (start of treatment)): 29.1 | PASI score (refractory psoriasis [3]; patient 5/PZ, visit v4): 16.9 | PASI score (refractory psoriasis [3]; patient 5/PZ, visit v7): 9.9 | PASI score (refractory psoriasis [3]; patient 5/PZ, visit v9): 9.3 | PASI score (refractory psoriasis [3]; patient 5/PZ, visit v10): 7.8 | PASI score (refractory psoriasis [3]; patient 5/PZ, visit v11): 3.4 | PASI score (refractory psoriasis [3]; patient 6/FJ, visit v1 (start of treatment)): 44.1 | PASI score (refractory psoriasis [3]; patient 6/FJ, visit v4): 24.8 | PASI score (refractory psoriasis [3]; patient 6/FJ, visit v7): 20.3 | PASI score (refractory psoriasis [3]; patient 6/FJ, visit v9): 15.6 | PASI score (refractory psoriasis [3]; patient 6/FJ, visit v10): 15.6 | PASI score (refractory psoriasis [3]; patient 6/FJ, visit v11): 15.3 | PASI score (refractory psoriasis [3]; patient 7/DJ, visit v1 (start of treatment)): 26.6 | PASI score (refractory psoriasis [3]; patient 7/DJ, visit v4): 23.6 | PASI score (refractory psoriasis [3]; patient 7/DJ, visit v7): 23.0 | PASI score (refractory psoriasis [3]; patient 7/DJ, visit v9): 21.8 | PASI score (refractory psoriasis [3]; patient 7/DJ, visit v10): 28.5 | PASI score (refractory psoriasis [3]; patient 7/DJ, visit v11): 29.7 | mean PASI score at the end of the third treatment cycle (refractory psoriasis [3]; seven patients, end of third treatment cycle): 11.4 | response to the treatment (refractory psoriasis [3]; seven patients, one patient absolutely resistant): Most of the patients did respond to the treatment | leukocyte count in the patient with leukopenia [4]: approximately 3×10E9 cells per liter | leukopenia incidence [4]: only one was diagnosed with mild, reversible leukopenia | serious adverse events [4]: no serious adverse events were reported | toxicity grade according to World Health Organisation criteria [4]: grade I | vomiting, nausea, or diarrhoea [4]: No cases of vomiting, nausea, or diarrhoea were recorded | arthralgia (psoriasis [5]; Example 1 patient, after 1000 mg dose on day 16): complete disappearance of anthralgia | adverse events (psoriasis [5]; Example 1 patient, after any of the injections (500, 1000, 1500 mg)): no adverse events | itch (psoriasis [5]; Example 1 patient, 500 mg i.v. on days 1 and 2): amelioration of itch several hours after the first | side effects (psoriasis [5]; Example 2 patient, 6 i.v. drip injections 500-1500 mg): no side effects | erythema (psoriasis [5]; Example 2 patient, examination on day 15 and day 29): mild amelioration of erythema on the back | skin itch (psoriasis [5]; Example 3 patient, at 2 or 3 days after the first injection): complete disappearance of skin itch | adverse events (psoriasis [5]; Example 3 patient, examination on day 15): no adverse events | adverse events (psoriasis [5]; [9]): No adverse events were reported | complete regression of the rash (psoriasis [5]; [9]): about 80%

CC(CN1CC(=O)NC(=O)C1)N1CC(=O)NC(=O)C1 (stereo not drawn) [dexrazoxane, d-isomer of 1,2-bis(3,5-dioxopiperazin-1-yl)-propane]
serious side effects [4]: No serious side effects have been reported | duration of relief from refractory psoriasis (refractory psoriasis [6]; some patients (summary statement)): up to at least one year | long term freedom from lesions and symptoms (refractory psoriasis [6]; three patients with refractory psoriasis, after one year): one patient is still relatively free of lesions and symptoms after one year | itch (psoriasis [5]; [10]): diminished several hours after the first administration | regression of the skin lesions (psoriasis [5]; [10]): 25-30%
